Tests used:
Assay type in all cases: in vivo
[1] = tested on: Caliothrips phaseoli; assay: Example 3: courgettes against Caliothrips phaseoli; conditions: 8 d after treatment, nymphs on 5 leaves, Endosulfan (350 EC) 525, (I-4) (240 SC + 0.1% rapeseed oil methyl ester) 72 g a.s./ha
Description: Plots approx. 22 m^2 in size which are planted with courgettes cv. “Italiana negra” are treated, in three replications, against Caliothrips phaseoli. The application is effected with a motor-driven knapsack sprayer. Here, the active substance Example (I-4) (240 SC), in a tank mix together with 0.1% a.s. rapeseed oil methyl ester (500 EW) and the commercial standard endosulfan (350 EC), is tested at the specified application rates. The water application rate is approx. 510 l/ha.
The test is evaluated 8 days after the treatment by scoring the destruction of the animals (nymphs) on 5 leaves.

[2] = tested on: Frankliniella occidentalis; assay: Example 5: aubergines against Frankliniella occidentalis; conditions: mixed populations on leaves
Description: Plots 6 m^2 in size which are planted with aubergines cv. “Soraya” are treated, in three replications, against Frankliniella occidentalis. The application is effected with a motor-operated knapsack sprayer. Here, the active substances Example (I-4) (240 SC) and Example (I-9) (240 SC), in a tank mix together with 0.1% a.s. rapeseed oil methyl ester (500 EW) and the commercial standard Spinosad (480 SC), are tested at the specified application rates. The water application rate is 1500 l/ha.
The test is evaluated 25, 32 and 39 days after the treatment by scoring the destruction rate of the mixed populations on the leaves.

[3] = tested on: Ceratitis capitata; assay: Example 20: peach trees against Ceratitis capitata; conditions: animals on fruits
Description: Peach trees cv. “Oom Sarel” which are approximately 10 years old are treated, in three replications, against Ceratitis capitata. The application is carried out with a high-pressure sprayer or a knapsack sprayer which is operated with pressurized air. Here, the active substance Example (I-4) (150 OD) and the commercial standard Fenthion (500 EC) are tested at the specified application rates. The water application rate is 2500 l/ha. Three applications are carried out at an interval of 7 and 19 days, respectively.
The test is evaluated 9 and 16 days after treatment 3 by scoring the destruction rate of the animals on the fruits with the aid of the Abbott formula.

[4] = tested on: Leptinotarsa decemlineata; assay: Example 23: potatoes against Leptinotarsa decemlineata
Description: Plots approx. 10 m^2 in size which are planted with potatoes “Quarta” are treated, in three replications, against Leptinotarsa decemlineata. The application is carried out with a knapsack sprayer operated with pressurized air. Here, the active substance Example (I-4) (240 SC), in a tank mix together with 0.2% a.s. rapeseed oil methyl ester (500 EW) and the commercial standard Deltamethrin (100 EC), is tested at the specified application rate. The water application rate is 300 l/ha.
The test is evaluated 3, 8 and 20 days after the treatment by scoring the destruction rate of the animals (larvae) on the plants.

CCOC(=O)OC1=C(c2cc(C)ccc2C)C(=O)N[C@]12CC[C@@H](OC)CC2 [Example (I-4)]
Efficacy (% Abbott) 8 d [1]: 71.3 % Abbott
Efficacy (% Abbott) 25 d ([2]; 25 d after treatment, Spinosad (480 SC) 0.012, (I-9) 0.0054, (I-4) 0.012 % a.s., 240 SC + 0.1% rapeseed oil methyl ester): 92.1 % Abbott
Efficacy (% Abbott) 32 d ([2]; 32 d after treatment, Spinosad 0.012, (I-9) 0.0054, (I-4) 0.012 % a.s.): 88.3 % Abbott
Efficacy (% Abbott) 39 d ([2]; 39 d after treatment, Spinosad 0.012, (I-9) 0.0054, (I-4) 0.012 % a.s.): 89.7 % Abbott
Efficacy (% Abbott) 16 d after treatment 3 ([3]; Fenthion 1700, (I-4) 100 g a.s./ha): 100 % Abbott
Efficacy (% Abbott) 9 d after treatment 3 ([3]; Fenthion (500 EC) 1700, (I-4) (150 OD) 100 g a.s./ha): 86.7 % Abbott
Efficacy (% Abbott) 3 d ([4]; 3 d after treatment, larvae, Deltamethrin (100 EC) 75, (I-4) (240 SC + 0.2% rapeseed oil methyl ester) 72 g a.s./ha): 53.3 % Abbott
Efficacy (% Abbott) 8 d ([4]; 8 d after treatment, Deltamethrin 75, (I-4) 72 g a.s./ha): 72.7 % Abbott
Efficacy (% Abbott) 20 d ([4]; 20 d after treatment, Deltamethrin 75, (I-4) 72 g a.s./ha): 84.4 % Abbott

— patent US20090298903A1, “USE OF TETRAMIC ACID DERIVATIVES FOR INSECT CONTROL” (priority 2006, published 2009)
